# Assay results reported in US7320984B2, “Remedies or preventives for urinary frequency or urinary incontinence and morphinan derivatives having nitrogen-containing heterocyclic group” (Toray Industries, Inc., priority 2002, dated 2008).
# System: rhythmic bladder contractions in rats
# Assay: Inhibitory effect against rhythmic bladder contractions in rats
# Format: in vivo
# Conditions: anesthetized female SD rats, intravenous
# Procedure, shortened: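 Urethane-anesthetized (1.0 g/kg i.p.) female SD rats; saline infused into bladder to induce rhythmic contractions, intravesical pressure monitored. Compound given i.v. at 1 ml/kg in saline, 10% or 20% aqueous DMSO, or 5% aqueous xylitol. Inhibitory time = period intravesical pressure stayed ≤50% of post-dose level (onset within 10 min); vehicles tested alone.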
compound,measurement,setting,value
"C=CCN1CC[C@]23c4c5ccc(O)c4O[C@H]2[C@H](N2Cc4c(F)cccc4C2=O)CC[C@@]3(O)[C@H]1C5 [Compound 89, 2-(17-allyl-4,5α-epoxy-3,14-dihydroxy-morphinan-6β-yl)-4-fluoro-2,3-dihydro-isoindol-1-one]",Mean Inhibitory Time of Rhythmic Bladder Contractions,dose 0.1 mg/kg body weight,12.5 min
"O=C1c2ccccc2C(=O)N1[C@H]1CC[C@@]2(O)[C@H]3Cc4ccc(O)c5c4[C@@]2(CCN3CC2CC2)[C@H]1O5 [Compound 66, N-(17-cyclopropylmethyl-4,5α-epoxy-3,14-dihydroxymorphinan-6α-yl)-phthalimide]",Mean Inhibitory Time of Rhythmic Bladder Contractions,dose 0.003 mg/kg body weight,27.4 min
"C=CCN1CC[C@]23c4c5ccc(O)c4O[C@H]2[C@H](N2C(=O)c4ccc(C)cc4C2=O)CC[C@@]3(O)[C@H]1C5 [Compound 56, N-(17-allyl-4,5α-epoxy-3,14-dihydroxymorphinan-6β-yl)-4-methylphthalimide]",Mean Inhibitory Time of Rhythmic Bladder Contractions,dose 0.1 mg/kg body weight,13.7 min
"O=C1Cc2ccccc2C(=O)N1[C@@H]1CC[C@@]2(O)[C@H]3Cc4ccc(O)c5c4[C@@]2(CCN3CC2CC2)[C@H]1O5 [Compound 106, 2-(17-cyclopropylmethyl-4,5α-epoxy-3,14-dihydroxy-morphinan-6β-yl)-4H-isoquinolin-1,3-dione]",Mean Inhibitory Time of Rhythmic Bladder Contractions,dose 0.01 mg/kg body weight,12.9 min
"O=C1C2=C(CCCC2)C(=O)N1C1CC[C@@]2(O)[C@H]3Cc4ccc(O)c5c4[C@@]2(CCN3CC2CC2)[C@H]1O5 (stereo in doubt) [Compound 72, N-(17-cyclopropylmethyl-4,5α-epoxy-3,14-dihydroxymorphinan-6α-yl)-3,4,5,6-tetrahydrophthalimide]",Mean Inhibitory Time of Rhythmic Bladder Contractions,dose 0.003 mg/kg body weight,26.7 min
"C=CCN1CC[C@]23c4c5ccc(O)c4O[C@H]2[C@H](N2C(=O)c4cccc(N)c4C2=O)CC[C@@]3(O)[C@H]1C5 [Compound 100, N-(17-allyl-4,5α-epoxy-3,14-dihydroxy-morphinan-6β-yl)-3-amino-phthalimide]",Mean Inhibitory Time of Rhythmic Bladder Contractions,dose 0.1 mg/kg body weight,14.0 min
"CCCN1CC[C@]23c4c5ccc(O)c4O[C@H]2[C@H](N2C(=O)c4cccc(N)c4C2=O)CC[C@@]3(O)[C@H]1C5 [Compound 101, N-(4,5α-epoxy-3,14-dihydroxy-17-propyl-morphinan-6β-yl)-3-amino-phthalimide]",Mean Inhibitory Time of Rhythmic Bladder Contractions,dose 0.3 mg/kg body weight,15.1 min
"CN1CC[C@]23c4c5ccc(O)c4O[C@H]2[C@H](N2CCOCc4ccccc42)CC[C@H]3[C@H]1C5 [Compound 10, 4,5α-epoxy-6β-(1,2,3,5-tetrahydro-benzo[e][1,4]oxazepino)-17-methyl-morphinan-3-ol]",Mean Inhibitory Time of Rhythmic Bladder Contractions,dose 0.3 mg/kg body weight,7.8 min
